From ChEMBL document CHEMBL1201862, “PubChem BioAssay data set” (2004)
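Briefly, cells in 96-well plates were exposed to five compound concentrations for 48 h, and endpoints were estimated by linear interpolation. Here, GI50 denotes the concentration required for 50% inhibition of growth.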 Calls of active or inactive are those of the source. Cut-off read from the data, not from the text of the source: active = GI50 up to about 1.1 µM and inactive = higher. *1 amine or outer side, *2 acyl side, *3 side chain or, on linkers, in order; H or OH if unused. Where a SMILES comes first, the peptide text is derived from it. [ ]: non-standard residue; d: D form. The star is where a group is joined. ξ: configuration not given here. X53 = CC(C)C[C@H](N[*:1])C1=N[C@H](C(=O)[*:2])CS1; Ile(3ξ) = CCC(C)[C@H](N)C(=O)O; Allyl(1,1-Me2) = C=CC(C)(C)*

Tests used:
Assay in all cases: NCI-60 cell line screen, 48 h
786-0 = tested on: 786-0
DMS-114 = tested on: DMS-114
SK-MEL-5 = tested on: SK-MEL-5
NCI-H522 = tested on: NCI-H522
TK-10 = tested on: TK-10
CAKI-1 = tested on: CAKI-1
SNB-19 = tested on: SNB-19
HT-29 = tested on: HT-29
SF-268 = tested on: SF-268
HOP-92 = tested on: HOP-92
HCC 2998 = tested on: HCC 2998
SK-OV-3 = tested on: SK-OV-3
U-251 = tested on: U-251
RPMI-8226 = tested on: RPMI-8226
K562 = tested on: K562
MDA-N = tested on: MDA-N
Hs-578T = tested on: Hs-578T
MDA-MB-435 = tested on: MDA-MB-435
BT-549 = tested on: BT-549
NCI/ADR-RES = tested on: NCI/ADR-RES

| Structure (SMILES) | GI50 (786-0) | GI50 (DMS-114) | GI50 (SK-MEL-5) | GI50 (NCI-H522) | GI50 (TK-10) | GI50 (CAKI-1) | GI50 (SNB-19) | GI50 (HT-29) | GI50 (SF-268) | GI50 (HOP-92) | GI50 (HCC 2998) | GI50 (SK-OV-3) | GI50 (U-251) | GI50 (RPMI-8226) | GI50 (K562) | GI50 (MDA-N) | GI50 (Hs-578T) | GI50 (MDA-MB-435) | GI50 (BT-549) | GI50 (NCI/ADR-RES) |
| --- | --- | --- | --- | --- | --- | --- | --- | --- | --- | --- | --- | --- | --- | --- | --- | --- | --- | --- | --- | --- |
| CC(=O)c1cccc(NC(=O)/C(=N\NC(C)(C)C)c2c(O)c3ccccc3oc2=O)c1 | > 100 µM (inactive) | > 100 µM (inactive) | > 100 µM (inactive) | > 100 µM (inactive) | > 100 µM (inactive) | > 100 µM (inactive) | > 100 µM (inactive) | 53.2 µM (inactive) | > 100 µM (inactive) | > 100 µM (inactive) | > 100 µM (inactive) | > 100 µM (inactive) | – | – | – | – | – | – | – | – |
| CCN(CC)c1cccc2c1C1(O)CCC3(CC21)OCCCCO3 (stereo unspecified) | 74 µM (inactive) | 94.6 µM (inactive) | 55.6 µM (inactive) | > 100 µM (inactive) | > 100 µM (inactive) | > 100 µM (inactive) | 18 µM (inactive) | 33.3 µM (inactive) | > 100 µM (inactive) | – | > 100 µM (inactive) | 71.9 µM (inactive) | 39.9 µM (inactive) | 77.6 µM (inactive) | > 100 µM (inactive) | – | – | – | – | – |
| O=C(CC1(O)C(=O)Nc2ccccc21)c1ccccc1Cl (stereo unspecified) | > 100 µM (inactive) | > 100 µM (inactive) | > 100 µM (inactive) | 76.6 µM (inactive) | > 100 µM (inactive) | > 100 µM (inactive) | > 100 µM (inactive) | > 100 µM (inactive) | > 100 µM (inactive) | > 100 µM (inactive) | – | > 100 µM (inactive) | – | > 100 µM (inactive) | > 100 µM (inactive) | – | – | – | – | – |
| O=C(CSc1nnc(Cc2ccccc2)o1)Nc1ccc(Cl)cc1Cl | > 100 µM (inactive) | > 100 µM (inactive) | > 100 µM (inactive) | > 100 µM (inactive) | > 100 µM (inactive) | > 100 µM (inactive) | > 100 µM (inactive) | > 100 µM (inactive) | > 100 µM (inactive) | – | > 100 µM (inactive) | > 100 µM (inactive) | > 100 µM (inactive) | > 100 µM (inactive) | > 100 µM (inactive) | – | – | – | – | – |
| CCCCCCC(=O)OC[n+]1cccc(-c2c(COC(=O)NC(C)C)c(COC(=O)NC(C)C)c3n2CCC3)c1 | 21.6 µM (inactive) | – | 32.4 µM (inactive) | 22.6 µM (inactive) | 56.2 µM (inactive) | 11 µM (inactive) | 90.6 µM (inactive) | 40.6 µM (inactive) | 20.4 µM (inactive) | 24.9 µM (inactive) | > 100 µM (inactive) | 40.6 µM (inactive) | 29.4 µM (inactive) | 32.1 µM (inactive) | 31.6 µM (inactive) | > 95.3 µM (inactive) | > 57.4 µM (inactive) | 70.8 µM (inactive) | 37.8 µM (inactive) | 32.4 µM (inactive) |
| CCCCCC[C@@H]1CCC2C(CO)[C@@H](O)CC[C@@H]2C1 (stereo partly specified) | 19.3 µM (inactive) | 19.6 µM (inactive) | 20 µM (inactive) | 16.3 µM (inactive) | – | > 10 µM (inactive) | 18.1 µM (inactive) | 18.2 µM (inactive) | 18.1 µM (inactive) | – | 22 µM (inactive) | – | 18.2 µM (inactive) | 25.3 µM (inactive) | 21.3 µM (inactive) | – | – | – | – | – |
| Cc1cccc(NC(=O)CSc2nnc(Cc3ccccc3)o2)c1 | > 100 µM (inactive) | > 100 µM (inactive) | > 100 µM (inactive) | > 100 µM (inactive) | > 100 µM (inactive) | > 100 µM (inactive) | > 100 µM (inactive) | > 100 µM (inactive) | > 100 µM (inactive) | – | > 100 µM (inactive) | > 100 µM (inactive) | > 100 µM (inactive) | – | > 100 µM (inactive) | – | – | – | – | – |
| Fc1ccc(C(OCCN2CC3CCC(C2)N3CCCc2ccccc2)c2ccc(F)cc2)cc1 | 3.62 µM (inactive) | – | 1.82 µM (inactive) | 2.17 µM (inactive) | 11.7 µM (inactive) | 6.22 µM (inactive) | 10.1 µM (inactive) | 3.29 µM (inactive) | 4.5 µM (inactive) | 8.05 µM (inactive) | 2.87 µM (inactive) | 10.2 µM (inactive) | 4.54 µM (inactive) | 2.15 µM (inactive) | 2 µM (inactive) | 3.43 µM (inactive) | 3.25 µM (inactive) | 2.13 µM (inactive) | 12.4 µM (inactive) | 3.89 µM (inactive) |
| O=c1cc(NNc2ccccc2)[nH]c(=S)[nH]1 | 4.9 µM (inactive) | – | 57 µM (inactive) | 17.5 µM (inactive) | 24.9 µM (inactive) | 20.3 µM (inactive) | > 100 µM (inactive) | 37.8 µM (inactive) | 32.7 µM (inactive) | 32.6 µM (inactive) | 17.4 µM (inactive) | > 100 µM (inactive) | 45 µM (inactive) | 10.5 µM (inactive) | 32.4 µM (inactive) | 40.6 µM (inactive) | > 100 µM (inactive) | 49.5 µM (inactive) | 97.5 µM (inactive) | 40.6 µM (inactive) |
| O=c1[nH]nc(-c2ccccc2)n1/N=C/c1ccccc1O | 29.2 µM (inactive) | – | 47.8 µM (inactive) | 42.7 µM (inactive) | > 100 µM (inactive) | > 100 µM (inactive) | 35.5 µM (inactive) | > 100 µM (inactive) | 80.2 µM (inactive) | 67.3 µM (inactive) | > 100 µM (inactive) | 22.9 µM (inactive) | 41.6 µM (inactive) | > 100 µM (inactive) | > 100 µM (inactive) | > 100 µM (inactive) | 29.3 µM (inactive) | > 100 µM (inactive) | > 100 µM (inactive) | > 100 µM (inactive) |
| CCCC(=O)Nc1cc(/C=C/C(=O)N2C[C@@H]3C[C@]34C2=CC(=O)c2[nH]cc(C)c24)n(C)c1 | 0.0757 µM (active) | – | 0.0748 µM (active) | 0.0432 µM (active) | 0.495 µM (active) | 0.1 µM (active) | 0.745 µM (active) | 0.208 µM (active) | 0.083 µM (active) | 0.372 µM (active) | 0.0931 µM (active) | 0.975 µM (active) | 0.0702 µM (active) | 0.675 µM (active) | 0.0661 µM (active) | 0.361 µM (active) | 0.668 µM (active) | 0.285 µM (active) | 0.29 µM (active) | 0.778 µM (active) |
| CN(C)c1n/c(=N/c2ccc3ccccc3c2)ss1 | 37.6 µM (inactive) | 9.06 µM (inactive) | 11.1 µM (inactive) | 7.41 µM (inactive) | 14.1 µM (inactive) | 5.87 µM (inactive) | 32 µM (inactive) | – | 33.7 µM (inactive) | – | 33.7 µM (inactive) | 77.1 µM (inactive) | 6.22 µM (inactive) | 6.9 µM (inactive) | 15.1 µM (inactive) | – | – | – | – | – |
| C=CC(C)(C)OC[C@@H]1NC(=O)CNC(=O)[C@@H]2CCCN2C(=O)[C@H](C(C)CC)NC(=O)[C@@H]2CSC(=N2)[C@H](CC(C)C)NC1=O (stereo partly specified) (cyclo(GS(Allyl(1,1-Me2))[X53][Ile(3ξ)]P)) | > 100 µM (inactive) | – | 32.6 µM (inactive) | 32.9 µM (inactive) | > 100 µM (inactive) | 75 µM (inactive) | > 100 µM (inactive) | 84.7 µM (inactive) | 68.4 µM (inactive) | 37.3 µM (inactive) | 83 µM (inactive) | > 100 µM (inactive) | > 100 µM (inactive) | 18.6 µM (inactive) | 41.7 µM (inactive) | > 100 µM (inactive) | 23.2 µM (inactive) | 26.4 µM (inactive) | 23.1 µM (inactive) | > 100 µM (inactive) |
| COc1cc2c(cc1O)NC(=O)[C@@H]1CCCN1C2=O | > 100 µM (inactive) | – | > 100 µM (inactive) | > 100 µM (inactive) | > 100 µM (inactive) | > 100 µM (inactive) | > 100 µM (inactive) | > 100 µM (inactive) | > 100 µM (inactive) | > 100 µM (inactive) | > 100 µM (inactive) | > 100 µM (inactive) | > 100 µM (inactive) | > 100 µM (inactive) | > 100 µM (inactive) | > 100 µM (inactive) | 24 µM (inactive) | > 100 µM (inactive) | > 100 µM (inactive) | > 100 µM (inactive) |
| CN(C)CCCc1cccc2[nH]c3c(c12)CN(C)CC3 | 92.3 µM (inactive) | – | > 100 µM (inactive) | > 100 µM (inactive) | > 100 µM (inactive) | > 100 µM (inactive) | > 100 µM (inactive) | 40.1 µM (inactive) | > 100 µM (inactive) | > 100 µM (inactive) | > 100 µM (inactive) | > 100 µM (inactive) | > 100 µM (inactive) | > 100 µM (inactive) | 76.7 µM (inactive) | > 100 µM (inactive) | > 100 µM (inactive) | > 100 µM (inactive) | 81.7 µM (inactive) | > 100 µM (inactive) |
| c1ccc2c(Cc3[nH]c4ccccc4c3Cc3c[nH]c4ccccc34)c[nH]c2c1 | 1.73 µM (inactive) | – | 2.17 µM (inactive) | 1.8 µM (inactive) | 2.85 µM (inactive) | 2.74 µM (inactive) | 4.93 µM (inactive) | 2.52 µM (inactive) | 1.23 µM (inactive) | 3.9 µM (inactive) | 1.64 µM (inactive) | 3.56 µM (inactive) | 2.88 µM (inactive) | 2.74 µM (inactive) | 2.33 µM (inactive) | 2.16 µM (inactive) | 1.47 µM (inactive) | 2.08 µM (inactive) | 5.57 µM (inactive) | 2.55 µM (inactive) |
| COC(=O)C(Cc1ccccc1)NC(=O)Cn1ccnc1[N+](=O)[O-] (stereo unspecified) | > 100 µM (inactive) | > 100 µM (inactive) | 96.6 µM (inactive) | > 100 µM (inactive) | > 100 µM (inactive) | > 100 µM (inactive) | > 100 µM (inactive) | > 100 µM (inactive) | > 100 µM (inactive) | 63.8 µM (inactive) | – | > 100 µM (inactive) | > 100 µM (inactive) | > 100 µM (inactive) | > 100 µM (inactive) | – | – | – | – | – |
